The results in this text go back to patent US10201533B2, “Substituted quinolizine derivatives useful as HIV integrase inhibitors” (priority 2013, dated 2019).

Molecules are shown by their SMILES. Where two headings read alike, the source gives them in different places. Bounds are passed on as bounds.

This experiment deals with HIV-1 (NL4-3 strain). Description: microbe, parasite or virus in culture. In kind it is cell-based. Conditions: MT4-GFP cells infected with HIV-1 NL4-3, IP or IC50 from 4-parameter dose response curve.
Setting [1] is: Human immunodeficiency virus 1, NL43, 0% normal human serum (NHS), read-out: WILD TYPE CELL ASSAY Viking IP (0% NHS).
[2] abbreviates: Human immunodeficiency virus 1, NL43, 100% normal human serum (NHS), read-out: WILD TYPE CELL ASSAY Viking IP (100% NHS).
Setting [3] is: 0% normal human serum (NHS), read-out: WILD TYPE CELL ASSAY Viking IP (0% NHS).
[4] abbreviates: 100% normal human serum (NHS), read-out: WILD TYPE CELL ASSAY Viking IP (100% NHS).

For the compound `CC1(C)CCn2cc(C(=O)NCc3cc4ccccn4n3)c(=O)c(O)c2C1=O` [Compound 3], under setting [1], the IC50 amounted to 6.5 nM.
In the case of `CC1(C)C(=O)c2c(O)c(=O)c(C(=O)NCc3ccc(F)cc3F)cn2CC1O` (stereo not drawn) [Compound 4], the IC50 worked out at 74 nM under setting [1] and 1850 nM under setting [2].
Turning to `COC1Cn2cc(C(=O)NCc3ccc(F)cc3F)c(=O)c(O)c2C(=O)C1(C)C` (stereo not drawn) [Compound 5], the IC50 under setting [1] is 2.6 nM and the IC50 under setting [2] amounted to 102 nM.
On to `COc1c2n(cc(-c3nnc(Cc4ccc(F)cc4F)s3)c1=O)CC(OC)C(C)(C)C2=O` (stereo not drawn) [Compound 6], for which, under setting [3], the IC50 was 10 nM.
As for `C[C@]12CCCO[C@H]1Cn1cc(C(=O)NCc3ccc(F)cc3F)c(=O)c(O)c1C2=O` [Compound 7], the IC50 under setting [4] is 154 nM and the IC50 under setting [1] stood at 2.2 nM.
As to `C[C@]12CCCO[C@H]1Cn1cc(C(=O)NCc3ccc(F)cc3F)c(=O)c(O)c1C2=O` [Compound 8], the IC50 reads like this: under setting [3], 1.8 nM; under setting [4], 500 nM.
As for `O=C(NCc1ccc(F)cc1F)c1cn2c(c(O)c1=O)C(=O)C1CCOC1C2` (stereo not drawn) [Compound 10], the IC50 under setting [1] was 66 nM.
Regarding `C[C@@]12COCO[C@H]1Cn1cc(C(=O)NCc3ccc(F)cc3F)c(=O)c(O)c1C2=O` [Compound 11], the IC50 by setting is: under setting [1], 3.2 nM; under setting [2], 484 nM.
For `C[C@@]12COCO[C@H]1Cn1cc(C(=O)NCc3ccc(F)cc3F)c(=O)c(O)c1C2=O` [Compound 12], the IC50 stood at 2.6 nM under setting [3] and 595 nM under setting [4].
Consider `C[C@]12COCO[C@H]1Cn1cc(C(=O)NCc3ccc(F)cc3F)c(=O)c(O)c1C2=O` [Compound 13], for which the IC50 was 3.8 nM under setting [1] and 124 nM under setting [2].
Consider `Cc1nc(CNC(=O)c2cn3c(c(O)c2=O)C(=O)[C@@]2(C)CCCO[C@H]2C3)sc1C` [Compound 31], for which the IC50 was 48 nM under setting [1] and over 8400 nM under setting [2].
For the compound `C[C@]12CCCCO[C@H]1Cn1cc(C(=O)NCc3cccc(Cl)c3F)c(=O)c(O)c1C2=O` [Compound 37], the IC50 turned out to be 80 nM under setting [4] and 1.5 nM under setting [1].
Consider `C[C@]12CCCCO[C@H]1Cn1cc(C(=O)NCc3cccc(Cl)c3F)c(=O)c(O)c1C2=O` [Compound 38], for which the IC50 by setting is: under setting [3], 1.8 nM; under setting [4], 1600 nM.
In the case of `C[C@@]12CC=CCO[C@@H]1Cn1cc(C(=O)NCc3ccc(F)cc3F)c(=O)c(O)c1C2=O` [Compound 47], the IC50 under setting [4] came to 70 nM and the IC50 under setting [1] came out at 1.3 nM.
In the case of `C[C@@]12CC=CCO[C@@H]1Cn1cc(C(=O)NCc3ccc(F)cc3F)c(=O)c(O)c1C2=O` [Compound 48], the IC50 runs as follows: under setting [3], 1.7 nM; under setting [4], 913 nM.
With `C[C@]12CC=CCO[C@@H]1Cn1cc(C(=O)NCc3ccc(F)cc3F)c(=O)c(O)c1C2=O` [Compound 49], the IC50 by setting is: under setting [4], 4070 nM; under setting [1], 3.2 nM.
Take `C[C@]12CC=CCO[C@@H]1Cn1cc(C(=O)NCc3ccc(F)cc3F)c(=O)c(O)c1C2=O` [Compound 50]: the IC50 is, setting by setting: under setting [3], 1.6 nM; under setting [4], 293 nM.
As to `COC1(C)CCn2cc(C(=O)NCc3ccc(F)cc3F)c(=O)c(O)c2C1=O` (stereo not drawn) [Compound 51], the IC50 runs as follows: under setting [4], 2200 nM; under setting [1], 3.6 nM.
As for `COC1(C)CCn2cc(C(=O)NCc3ccc(F)cc3F)c(=O)c(O)c2C1=O` (stereo not drawn) [Compound 52], the IC50 runs as follows: under setting [3], 3.4 nM; under setting [4], over 8400 nM.
As to `COC[C@]1(C)C(=O)c2c(O)c(=O)c(C(=O)NCc3ccc(F)cc3F)cn2C[C@@H]1OC` [Compound 54], the IC50 was found to be 1.8 nM under setting [3] and 55 nM under setting [4].
As for `COC[C@]1(C)C(=O)c2c(O)c(=O)c(C(=O)NCc3ccc(F)cc3F)cn2C[C@@H]1OC` [Compound 55], the IC50 under setting [3] is 8.1 nM and the IC50 under setting [4] is over 8400 nM.
Consider `COC[C@@]1(C)C(=O)c2c(O)c(=O)c(C(=O)NCc3ccc(F)cc3F)cn2C[C@@H]1OC` [Compound 56], for which the IC50 runs as follows: under setting [4], 342 nM; under setting [1], 3.4 nM.
Regarding `COC[C@@]1(C)C(=O)c2c(O)c(=O)c(C(=O)NCc3ccc(F)cc3F)cn2C[C@@H]1OC` [Compound 57], the IC50 is, setting by setting: under setting [3], 4.7 nM; under setting [4], 3500 nM.
On to `COCC[C@]1(C)C(=O)c2c(O)c(=O)c(C(=O)NCc3ccc(F)cc3F)cn2C[C@@H]1OC` [Compound 60], for which the IC50 runs as follows: under setting [1], 2.9 nM; under setting [2], 2230 nM.
With `COCC[C@@]1(C)C(=O)c2c(O)c(=O)c(C(=O)NCc3cccc(Cl)c3F)cn2C[C@@H]1OC` [Compound 62], the IC50 under setting [1] stood at 0.9 nM and the IC50 under setting [2] was 481 nM.
For the compound `COCC[C@@]1(C)C(=O)c2c(O)c(=O)c(C(=O)NCc3cccc(Cl)c3F)cn2C[C@@H]1OC` [Compound 63], the IC50 is, setting by setting: under setting [3], 0.9 nM; under setting [4], 249 nM.
Consider `COCC[C@]1(C)C(=O)c2c(O)c(=O)c(C(=O)NCc3cccc(Cl)c3F)cn2C[C@@H]1OC` [Compound 64], for which the IC50 came out at 2960 nM under setting [4] and 0.9 nM under setting [1].
`COCC[C@]1(C)C(=O)c2c(O)c(=O)c(C(=O)NCc3cccc(Cl)c3F)cn2C[C@@H]1OC` [Compound 65]: the IC50 runs as follows: under setting [3], 0.8 nM; under setting [4], 34 nM.
As to `COCC[C@@]1(C)C(=O)c2c(O)c(=O)c(C(=O)NCc3ccccc3F)cn2C[C@@H]1OC` [Compound 66], the IC50 was 2.5 nM under setting [1] and 126 nM under setting [2].
On to `COCC[C@@]1(C)C(=O)c2c(O)c(=O)c(C(=O)NCc3ccccc3F)cn2C[C@@H]1OC` [Compound 67], for which the IC50 runs as follows: under setting [3], 1.7 nM; under setting [4], 154 nM.
Turning to `COCC[C@]1(C)C(=O)c2c(O)c(=O)c(C(=O)NCc3ccccc3F)cn2C[C@@H]1OC` [Compound 68], the IC50 is, setting by setting: under setting [4], 604 nM; under setting [1], 1.8 nM.
With `COCC[C@]1(C)C(=O)c2c(O)c(=O)c(C(=O)NCc3ccccc3F)cn2C[C@@H]1OC` [Compound 69], the IC50 was 1.2 nM under setting [3] and 24 nM under setting [4].
Consider `COCC[C@@]1(C)C(=O)c2c(O)c(=O)c(C(=O)NCc3c(F)cccc3F)cn2C[C@@H]1OC` [Compound 70], for which the IC50 turned out to be 1.9 nM under setting [1] and 80 nM under setting [2].
As to `COCC[C@@]1(C)C(=O)c2c(O)c(=O)c(C(=O)NCc3c(F)cccc3F)cn2C[C@@H]1OC` [Compound 71], the IC50 under setting [3] turned out to be 2.2 nM and the IC50 under setting [4] turned out to be 89 nM.
Take `COCC[C@]1(C)C(=O)c2c(O)c(=O)c(C(=O)NCc3c(F)cccc3F)cn2C[C@@H]1OC` [Compound 72]: the IC50 came out at 2.2 nM under setting [3] and 467 nM under setting [4].
In the same order, the values of `COCC[C@]1(C)C(=O)c2c(O)c(=O)c(C(=O)NCc3c(F)cccc3F)cn2C[C@@H]1OC` [Compound 73] are 1 nM and 22 nM.
`COCCC[C@]1(C)C(=O)c2c(O)c(=O)c(C(=O)NCc3ccc(F)cc3F)cn2C[C@@H]1OC` [Compound 74]: the IC50 was 4 nM under setting [3] and 262 nM under setting [4].
In the same order, the values of `COCCC[C@]1(C)C(=O)c2c(O)c(=O)c(C(=O)NCc3ccc(F)cc3F)cn2C[C@@H]1OC` [Compound 75] are 0.5 nM and 13 nM.
In the case of `COCCC[C@@]1(C)C(=O)c2c(O)c(=O)c(C(=O)NCc3ccc(F)cc3F)cn2C[C@@H]1OC` [Compound 76], the IC50 reads like this: under setting [1], 0.9 nM; under setting [2], 35 nM.
For `COCCC[C@@]1(C)C(=O)c2c(O)c(=O)c(C(=O)NCc3ccc(F)cc3F)cn2C[C@@H]1OC` [Compound 77], the IC50 by setting is: under setting [3], 1.2 nM; under setting [4], 60 nM.
Regarding `COCCC[C@]1(C)C(=O)c2c(O)c(=O)c(C(=O)NCc3cccc(Cl)c3F)cn2C[C@@H]1OC` [Compound 78], the IC50 is, setting by setting: under setting [4], 15 nM; under setting [1], 0.8 nM.
In the case of `COCCC[C@]1(C)C(=O)c2c(O)c(=O)c(C(=O)NCc3cccc(Cl)c3F)cn2C[C@@H]1OC` [Compound 79], the IC50 turned out to be 1 nM under setting [3] and 662 nM under setting [4].
Turning to `COCCC[C@@]1(C)C(=O)c2c(O)c(=O)c(C(=O)NCc3cccc(Cl)c3F)cn2C[C@@H]1OC` [Compound 80], the IC50 was 101 nM under setting [4] and 1.1 nM under setting [1].
Take `COCCC[C@@]1(C)C(=O)c2c(O)c(=O)c(C(=O)NCc3cccc(Cl)c3F)cn2C[C@@H]1OC` [Compound 81]: the IC50 under setting [3] stood at 1 nM and the IC50 under setting [4] was found to be 296 nM.
Consider `COCCC[C@]1(C)C(=O)c2c(O)c(=O)c(C(=O)NCc3c(F)cccc3F)cn2C[C@@H]1OC` [Compound 82], for which the IC50 is, setting by setting: under setting [3], 4.1 nM; under setting [4], 160 nM.
Regarding `COCCC[C@]1(C)C(=O)c2c(O)c(=O)c(C(=O)NCc3c(F)cccc3F)cn2C[C@@H]1OC` [Compound 83], the IC50 by setting is: under setting [3], 0.9 nM; under setting [4], 19 nM.
For `COCCC[C@@]1(C)C(=O)c2c(O)c(=O)c(C(=O)NCc3c(F)cccc3F)cn2C[C@@H]1OC` [Compound 84], the IC50 is 1.8 nM under setting [1] and 31 nM under setting [2].
In the case of `COCCC[C@]1(C)C(=O)c2c(O)c(=O)c(C(=O)NCc3ccccc3F)cn2C[C@@H]1OC` [Compound 86], the IC50 is 1.3 nM under setting [3] and 18 nM under setting [4].
Turning to `COCCC[C@]1(C)C(=O)c2c(O)c(=O)c(C(=O)NCc3ccccc3F)cn2C[C@@H]1OC` [Compound 87], the IC50 under setting [3] was found to be 8 nM and the IC50 under setting [4] came out at 269 nM.
Turning to `COCCC[C@@]1(C)C(=O)c2c(O)c(=O)c(C(=O)NCc3ccccc3F)cn2C[C@@H]1OC` [Compound 88], the IC50 under setting [1] amounted to 2.3 nM and the IC50 under setting [2] came to 63 nM.
For `COCCC[C@@]1(C)C(=O)c2c(O)c(=O)c(C(=O)NCc3ccccc3F)cn2C[C@@H]1OC` [Compound 89], the IC50 is 2.1 nM under setting [3] and 73 nM under setting [4].
